Patent US6818667B2, “Eurotinones, and derivatives thereof, processes for preparing them, and their use” (Aventis Pharma Deutschland GmbH, priority 2001, dated 2004)
pIC50: −log10 of the molar value.

Molecular target: KDR kinase (VEGF receptor) (Homo sapiens, UniProt P35968)
Assay: KDR kinase activity assay (FlashPlate, 33P-ATP phosphorylation of peptide substrate PLCγ1)
Type: biochemical
Details: purified enzyme, 5 μM cold ATP, pH 7.4, RT 1 h
Protocol: The tyrosine kinase receptor KDR is the test target. KDR plays a key role in the growth of endothelium and in angiogenesis and is consequently also involved in the development of tumors. KDR is consequently an important therapeutic target molecule for cancer diseases and other proliferative diseases. In the test, the activity of the KDR kinase is measured on the basis of the phosphorylation of a specific peptide substrate.
The KDR kinase was determined using purified enzyme in 384-well microtiter plates (Coated FlashPlates, NEN Life Science). The enzyme activities were determined by means of phosphorylating a specific peptide substrate. A previously prepared series of dilutions of the eurotinones having concentrations of 100, 50, 25, 12.5, 6.25, 3.125, 1.5625, 0.7813, 0.3906, 0.195, 0.094, 0.047 and 0 μM were pipetted, in the corresponding order, into the experimental assays. The reaction mixture (radioactively labeled ATP, buffer solution at pH 7.4 and enzyme solutions) was then added and the whole was incubated at RT for 1 h.
Enzyme: KDR kinase (VEGF receptor)
50 mM MOPS, pH7.4, 10 mM MgCl2, 2 mM DTT, 2.5 mM EDTA,
ATP solution: 25μCi of ^33P-γ-ATP/ml and 12.5 μM cold ATP
KDR enzyme solution: 3.5 μg/ml in kinase buffer
384-well FlashPlates were coated, at […] and overnight, with 60 μl (1.2 μg/well) of the peptide substrate and then washed 3×with in each case 80 μl of PBS. The plates which had been coated in this way can be stored for a relatively short time at 4° C. and for a longer period at −20° C. […]
The plates were subsequently washed three times with 75 μl of washing solution in each case and the radioactivity is measured over 30 seconds in a MicroBeta counter (Wallac). […]
The activity of the KDR kinase was measured by way of the incorporation of radioactive phosphate from ATP into the substrate, and the inhibitory effect of the eurotinone (IC50) was calculated from this incorporation.
The inhibition was calculated as: […]

KDR kinase (VEGF receptor), sequence (P35968 20-1356): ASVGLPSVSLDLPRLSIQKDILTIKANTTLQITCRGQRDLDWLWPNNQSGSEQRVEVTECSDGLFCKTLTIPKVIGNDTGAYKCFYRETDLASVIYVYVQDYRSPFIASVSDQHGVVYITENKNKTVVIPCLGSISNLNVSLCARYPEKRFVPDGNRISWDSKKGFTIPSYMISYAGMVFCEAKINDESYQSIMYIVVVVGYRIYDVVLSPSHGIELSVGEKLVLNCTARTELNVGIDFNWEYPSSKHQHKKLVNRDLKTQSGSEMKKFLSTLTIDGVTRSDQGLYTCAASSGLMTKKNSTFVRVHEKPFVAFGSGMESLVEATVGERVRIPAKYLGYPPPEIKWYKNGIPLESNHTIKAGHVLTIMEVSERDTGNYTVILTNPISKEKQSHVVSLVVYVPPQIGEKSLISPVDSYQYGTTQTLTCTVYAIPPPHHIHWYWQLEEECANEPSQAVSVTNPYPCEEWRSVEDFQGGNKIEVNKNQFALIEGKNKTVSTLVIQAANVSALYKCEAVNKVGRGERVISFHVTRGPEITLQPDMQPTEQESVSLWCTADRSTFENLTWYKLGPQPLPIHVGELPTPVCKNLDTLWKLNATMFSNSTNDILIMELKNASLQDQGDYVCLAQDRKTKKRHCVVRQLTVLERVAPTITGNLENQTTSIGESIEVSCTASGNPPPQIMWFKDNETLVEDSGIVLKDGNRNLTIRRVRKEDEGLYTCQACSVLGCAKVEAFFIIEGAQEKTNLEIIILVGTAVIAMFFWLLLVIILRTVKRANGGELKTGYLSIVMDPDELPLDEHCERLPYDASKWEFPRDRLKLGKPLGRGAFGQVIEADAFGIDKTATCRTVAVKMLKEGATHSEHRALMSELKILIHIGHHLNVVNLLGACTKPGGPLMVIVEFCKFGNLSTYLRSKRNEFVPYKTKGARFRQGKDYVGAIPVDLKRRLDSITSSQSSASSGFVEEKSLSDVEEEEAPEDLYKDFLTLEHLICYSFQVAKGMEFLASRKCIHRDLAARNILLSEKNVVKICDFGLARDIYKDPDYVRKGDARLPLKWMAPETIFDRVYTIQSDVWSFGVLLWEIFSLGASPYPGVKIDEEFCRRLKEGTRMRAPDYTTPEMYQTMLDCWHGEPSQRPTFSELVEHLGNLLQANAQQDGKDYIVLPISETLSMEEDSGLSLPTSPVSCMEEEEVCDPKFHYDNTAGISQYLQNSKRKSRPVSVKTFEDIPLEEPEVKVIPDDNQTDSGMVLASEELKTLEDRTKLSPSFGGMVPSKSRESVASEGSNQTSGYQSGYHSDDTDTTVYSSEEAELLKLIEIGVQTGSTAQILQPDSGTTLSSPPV

| SMILES | pIC50 |
| --- | --- |
| COc1cc(O)cc2c1OC(=O)c1c(OC)cc(C)c(O)c1C2 [2,12-dimethyleurotinone (compound 2), 2,12-dimethyleurotinone] | 3.81 |
| COc1cc(O)cc2c1OC(=O)c1c(O)cc(C)c(O)c1C2 [2-methyleurotinone (compound 3), 2-methyleurotinone] | 4.74 |
| Cc1cc(O)c2c(c1O)Cc1cc(O)cc(O)c1OC2=O [eurotinone (compound 1), eurotinone] | 4.66 |
